Reference: PMC10548421, “Anticancer Potential of Diruthenium Complexes with Bridging Hydrocarbyl Ligands from Bioactive Alkynols” (Inorganic Chemistry, 2023)

Test: Cyclic voltammetry in CH2Cl2/[N^nBu4]PF6
Format: physicochemical
Conditions: CH2Cl2/[N^nBu4]PF6 0.2 M
Description: Cyclic voltammetry measurements were conducted by using a PalmSens4 instrument connected to a computer operating with the PSTrace5 electrochemical software. Prior to use, anhydrous CH2Cl2 (Merck) was stored under argon over 3 Å molecular sieves. Both [N^nBu4]PF6 (electrochemical grade) and FeCp2, obtained from Fluka, were utilized without requiring additional purification. Cyclic voltammetries were carried out under argon by utilizing a 0.2 M solution of [N^nBu4]PF6 in CH2Cl2 as the supporting electrolyte. The working electrode and the counter electrode were comprised of a platinum disk and a platinum gauze, respectively, both enclosed within a glass tube. A leakage-free miniature electrode of Ag/AgCl/KCl (from eDAQ) was employed as a reference. The three-electrode designed cell was subjected to predrying via vacuum heating and then filled with argon gas. The Schlenk-type design of the cell was effective in upholding both anhydrous and anaerobic conditions. Subsequently, a solution of supporting electrolyte, prepared under argon, was introduced into the cell, and the CV of the solvent was acquired. Afterward, the analyte was introduced, and voltammograms were recorded. Under the selected experimental conditions, the one-electron oxidation of ferrocene occurred at a standard potential of E° = +0.45 V relative to Ag/AgCl/KCl.

[1] = vs Ag/AgCl/KCl, peak potential of irreversible process

Structure (SMILES): F[B-](F)(F)F.O=[C]=[Ru+]1([CH]2C=CC=C2)[C](=O)[Ru]1(=[C]=O)([CH]=C=C1CCCC1)[CH]1C=CC=C1 (stereo not shown) [3a, [Ru2Cp2(CO)3{μ–η^1:η^2-CH=C=(cyclopentylidene)}]BF4]
- Formal electrode potential, oxidation [1]: +1.61 V
- Formal electrode potential, reduction [1]: –1.00 V
- Formal electrode potential, oxidation (vs FeCp2 (in parentheses)): +1.15 V
- Formal electrode potential, reduction (vs FeCp2 (in parentheses)): −1.46 V
